Experiments:
Test in all cases: relative viability (nuclei count vs DMSO), 5 days (fraction); higher = more cells survive
[1] = compound: C1CNCCC1C2=CC(=NN2)C3=CC=NC=C3
Summary of the method: (§1)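 After an overnight hold at 37 °C, lung cancer cell lines in 1536-well plates were pinned with five library-drug doses (not always all listed), each √10 from the next, on vehicle-anchored plates. The cells stayed 5 days without fresh medium, then a one-step fix, permeabilisation and Hoechst stain preceded 4× imaging and MetaXpress nuclear counts. A plate passed only with control CV under 25% and at least one doubling. Viability is the median, over plates, of treated-well nuclei relative to vehicle-well nuclei.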

[2] = compound: C[C@@H](N)c1ccc(C(=O)Nc2ccnc3[nH]ccc23)cc1
Summary of the method: as §1

Tanzisertib = compound: O[C@H]1CC[C@H](Nc2ncc3nc(Nc4c(F)cc(F)cc4F)n([C@H]4CCOC4)c3n2)CC1 [Tanzisertib]
Summary of the method: as §1

[3] = compound: C[C@@H](N)c1ccc(C(=O)Nc2ccnc3[nH]ccc23)cc1 + Cc1nc(Nc2ncc(C(=O)Nc3c(C)cccc3Cl)s2)cc(N2CCN(CCO)CC2)n1 [Dasatinib] (partner 0.075 µM)
Summary of the method: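 Cells from lung cancer lines were seeded into 1536-well plates and, one day later, dosed by pin tool. Treatments were either a single drug or a fixed dose of an anchor drug with five library-drug doses (not always all listed) in √10 steps. After 5 days, nuclei were stained in a one-step fixation (final 0.05% Triton X-100, 1% formaldehyde, 1 ug/ml Hoechst) and counted on 4× images, and relative viability is the treated-to-vehicle nuclei ratio, as the median of duplicate plates.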

Row | Cell Line | relative viability ([1]; 0.08 µM) | relative viability ([1]; 0.8 µM) | relative viability ([1]; 2.53 µM) | relative viability ([1]; 8 µM) | relative viability ([2]; 0.04 µM) | relative viability ([2]; 0.1265 µM) | relative viability ([2]; 0.4 µM) | relative viability ([2]; 1.265 µM) | relative viability ([2]; 4 µM) | relative viability (Tanzisertib; 0.08 µM) | relative viability (Tanzisertib; 0.253 µM) | relative viability (Tanzisertib; 0.8 µM) | relative viability (Tanzisertib; 2.53 µM) | relative viability (Tanzisertib; 8 µM) | relative viability ([3]; first compound 0.04 µM) | relative viability ([3]; first compound 0.1265 µM) | relative viability ([3]; first compound 0.4 µM) | relative viability ([3]; first compound 1.265 µM) | relative viability ([3]; first compound 4 µM)
1 | NCI-H460 | 0.939 | 1.05 | 0.971 | 1.01 | 0.963 | 0.997 | 1.06 | 0.851 | 0.993 | 0.994 | 0.976 | 0.992 | 0.982 | 0.98 | 0.463 | 0.525 | 0.451 | 0.27 | 0.337
2 | NCI-H520 | 0.899 | 0.816 | 0.988 | 1.03 | 1.14 | 1.12 | 0.999 | 1.03 | 1.15 | 1.09 | 0.981 | 1.03 | 0.919 | 0.907 | 0.212 | 0.205 | 0.181 | 0.219 | 0.196
3 | NCI-H522 | 0.819 | 1.05 | 0.983 | 0.98 | 0.935 | 0.865 | 1.11 | 0.875 | 0.805 | 1.11 | 1.01 | 1.02 | 0.956 | 0.702 | 0.797 | 0.931 | 0.827 | 0.771 | 0.765
4 | NCI-H596 | 1.02 | 0.995 | 0.983 | 0.959 | 1.06 | 0.905 | 0.907 | 0.815 | 0.967 | 0.927 | 1.05 | 0.893 | 0.914 | 0.818 | 0.671 | 0.537 | 0.493 |  | 0.557
5 | NCI-H647 | 1.02 | 0.947 | 1 | 0.868 | 0.992 | 0.955 | 0.916 | 0.694 | 0.811 | 1.21 | 0.976 | 0.973 | 1.12 | 0.779 | 0.15 | 0.172 | 0.157 | 0.166 | 0.133
6 | NCI-H650 | 0.946 | 0.933 | 1.08 | 0.998 |  | 0.849 | 0.932 |  | 0.785 | 0.973 | 1.01 | 0.975 | 1.14 | 0.411 |  | 0.41 | 0.393 | 0.245 | 0.32
7 | NCI-H661 | 0.993 | 0.964 | 0.96 | 0.988 | 0.907 | 1.02 | 0.974 | 0.891 | 0.87 | 1.01 | 0.997 | 0.964 | 0.944 | 0.964 | 0.702 | 0.878 | 0.893 | 0.723 | 0.55
8 | NCI-H727 | 0.874 | 0.942 | 1.05 | 1.22 | 1.02 | 1.17 | 1.25 | 0.932 | 1.3 | 0.918 | 0.901 | 1.01 | 0.887 | 0.944 | 0.628 | 0.529 | 0.71 | 0.479 | 0.725
9 | NCI-H838 | 0.997 | 0.884 | 1.01 | 0.956 | 0.761 | 0.905 | 0.867 | 0.576 | 0.415 | 0.987 | 0.985 | 0.933 | 0.933 | 0.917 | 0.221 | 0.305 | 0.26 | 0.187 | 0.233
10 | NCI-H1355 | 0.955 | 0.957 | 1.08 | 0.977 | 0.961 | 1.01 | 1.12 | 0.909 | 0.986 | 1.08 | 0.978 | 1.09 | 0.96 | 0.911 | 0.516 | 0.738 | 0.764 | 0.671 | 0.427
11 | NCI-H1395 | 0.861 | 0.733 | 1.07 | 0.882 | 0.889 | 0.924 | 0.949 |  | 0.828 | 0.986 | 1 | 0.96 | 1.03 | 0.715 | 0.416 | 0.431 | 0.368 | 0.394 | 0.399
12 | NCI-H1437 | 0.974 | 1.07 | 1 | 0.99 | 1.04 | 1.03 | 1.08 | 0.968 | 0.987 | 1 | 1.06 | 1.04 | 1.02 | 1.04 | 0.451 | 0.292 | 0.372 | 0.471 | 0.393
13 | NCI-H1563 | 0.757 | 0.875 | 0.966 | 1.04 | 0.875 | 1.07 | 0.978 | 0.914 | 1.03 | 1.03 | 1.03 | 0.995 | 0.997 | 0.99 | 0.49 | 0.462 | 0.486 | 0.377 | 0.465
14 | NCI-H1623 | 0.991 | 0.921 | 1.14 | 1.03 | 1.16 | 0.976 | 1.11 | 1.06 | 1.15 | 1.08 | 1.21 | 1.01 | 0.964 | 0.952 | 0.619 | 0.501 | 0.602 | 0.21 | 0.709

— the supplement of paper PMC10307832
